Test results: patent US6890736B1, “Methods for producing proteins in cultured cells” (Immunex Corporation, priority 2002, dated 2005)
Where “and” joins values, the source holds several entries; their conditions need not be identical. Identical values can stand only once.

Columns and labels:
[1] = tested on: cell line 25H9 (CHO cells that produce IL-1R-II protein); assay: Example 1: induction of IL-1R-II production (ELISA titer, productivity) at 31° C. or 34° C.; format: cell-based, Chinese hamster
Method: (§1) The following experiment was designed to test whether decitabine can induce the production of a protein, in this case a recombinant soluble form of the human interleukin 1 receptor type II (IL-1-R-II), at either 31° C. or 34° C. Soluble versions of IL-1R-II and methods for producing it are described in U.S. Pat. No. 5,767,064. DNA encoding a soluble form of the human IL-1R-II was inserted into pG3.6, which is described in Morris et al. ((1998), Cytotechnology 28:9-17). This construct was used to transfect CHO cells to produce cell lines, including 25H9, that produce IL-1R-II protein.
(§2) About 2×10^6 cells of cell line 25H9 were inoculated into 30 milliliters of serum-free medium and incubated at the temperatures indicated in Table 1 in vented shake flasks. At the times indicated in Table 1, samples were taken from each flask to determine IL-1R-II titer, cell number, and cell viability. IL-1R-II protein titer was determined by ELISA assay. Cell number was determined by counting cells in a hemocytometer. Cell viability was determined by trypan blue staining and counting stained cells in a hemocytometer. Cumulative viable cell density (CVCD) is the area under the curve of a plot of the viable cell density versus time (in units of cells/ml/day). Productivity (pg of IL-1R-II/cell/day) was determined by dividing the protein titer on a particular day by the CVCD on the same day. Cells were fed with amino acids on days 2 and 5, and dextrose was added periodically in order to maintain levels above 2.0 g/L. All samples were done in duplicate, and the data shown is an average value.

[2] = Example 1: cell number (hemocytometer) and viability (trypan blue); format: cell-based, Chinese hamster; details: Chinese hamster; for viability at 0 day, 1 μM / viability at 3 day, 1 μM / viability at 5 day, 1 μM / viability at 7 day, 1 μM / viability at 10 day, 1 μM: 1 μM decitabine; for viability at 0 day, 1 μM / viability at 0 day, 5 μM / viability at 0 day, 10 μM: day 0; for viability at 3 day, 1 μM / viability at 3 day, 5 μM / viability at 3 day, 10 μM: day 3; for viability at 5 day, 1 μM / viability at 5 day, 5 μM / viability at 5 day, 10 μM: day 5; for viability at 7 day, 1 μM / viability at 7 day, 5 μM / viability at 7 day, 10 μM: day 7; for viability at 0 day, 5 μM / viability at 3 day, 5 μM / viability at 5 day, 5 μM / viability at 7 day, 5 μM / viability at 10 day, 5 μM: 5 μM decitabine
Method: as §1, §2

[3] = 31° C., 1 μM decitabine, day 10
[4] = 31° C., 5 μM decitabine, day 10
[5] = 31° C., 10 μM decitabine, day 3
[6] = 31° C., 10 μM decitabine, day 5
[7] = 31° C., 10 μM decitabine, day 7
[8] = 31° C., 10 μM decitabine, day 10
[9] = 34° C., 10 μM decitabine, day 3
[10] = 34° C., 10 μM decitabine, day 5
[11] = 34° C., 10 μM decitabine, day 7

## Nc1ncn([C@H]2C[C@H](O)[C@@H](CO)O2)c(=O)n1 [decitabine, 5-aza-2′-deoxycytidine]
[1]; 31° C., 1 μM decitabine, day 0
  IL-1R-II Titer: 0.0 µg/mL
[1]; 31° C., 1 μM decitabine, day 3
  IL-1R-II Titer: 62.6 µg/mL
  Productivity: 7.5 pg IL-1R-II/cell/day
[1]; 31° C., 1 μM decitabine, day 5
  IL-1R-II Titer: 132.0 µg/mL
  Productivity: 7.8 pg IL-1R-II/cell/day
[1]; 31° C., 1 μM decitabine, day 7
  IL-1R-II Titer: 216.5 µg/mL
  Productivity: 7.8 pg IL-1R-II/cell/day
[1]; [3]
  IL-1R-II Titer: 330.5 µg/mL
  Productivity: 7.5 pg IL-1R-II/cell/day
[1]; 31° C., 5 μM decitabine, day 0
  IL-1R-II Titer: 0.0 µg/mL
[1]; 31° C., 5 μM decitabine, day 3
  IL-1R-II Titer: 77.8 µg/mL
  Productivity: 9.2 pg IL-1R-II/cell/day
[1]; 31° C., 5 μM decitabine, day 5
  IL-1R-II Titer: 123.5 µg/mL
  Productivity: 7.8 pg IL-1R-II/cell/day
[1]; 31° C., 5 μM decitabine, day 7
  IL-1R-II Titer: 210.5 µg/mL
  Productivity: 9.2 pg IL-1R-II/cell/day
[1]; [4]
  IL-1R-II Titer: 351.0 µg/mL
  Productivity: 8.8 pg IL-1R-II/cell/day
[1]; 31° C., 10 μM decitabine
  IL-1R-II titer relative to the titer observed at 31° C. with no inducer: 1.7 times
[1]; 31° C., 10 μM decitabine among 1, 5, 10 μM
  most effective concentration for IL-1R-II titer: most effective concentration among those tested
[1]; 31° C., 10 μM decitabine, day 0
  IL-1R-II Titer: 0.0 µg/mL
[1]; [5]
  IL-1R-II Titer: 59.1 µg/mL
  Productivity: 8.0 pg IL-1R-II/cell/day
[1]; [6]
  IL-1R-II Titer: 149.5 µg/mL
  Productivity: 10.4 pg IL-1R-II/cell/day
[1]; [7]
  IL-1R-II Titer: 224.5 µg/mL
  Productivity: 10.4 pg IL-1R-II/cell/day
[1]; [8]
  IL-1R-II Titer: 378 µg/mL and 378.0 µg/mL
  Productivity: 11.9 pg IL-1R-II/cell/day
[1]; 34° C., 1 μM decitabine, day 0
  IL-1R-II Titer: 0.0 µg/mL
[1]; 34° C., 1 μM decitabine, day 3
  IL-1R-II Titer: 65.4 µg/mL
  Productivity: 5.7 pg IL-1R-II/cell/day
[1]; 34° C., 1 μM decitabine, day 5
  IL-1R-II Titer: 143.5 µg/mL
  Productivity: 5.6 pg IL-1R-II/cell/day
[1]; 34° C., 1 μM decitabine, day 7
  IL-1R-II Titer: 212.5 µg/mL
  Productivity: 5.1 pg IL-1R-II/cell/day
[1]; 34° C., 1 μM decitabine, day 10
  IL-1R-II Titer: 206.0 µg/mL
[1]; 34° C., 5 μM decitabine, day 0
  IL-1R-II Titer: 0.0 µg/mL
[1]; 34° C., 5 μM decitabine, day 3
  IL-1R-II Titer: 73.6 µg/mL
  Productivity: 6.4 pg IL-1R-II/cell/day
[1]; 34° C., 5 μM decitabine, day 5
  IL-1R-II Titer: 156.5 µg/mL
  Productivity: 6.3 pg IL-1R-II/cell/day
[1]; 34° C., 5 μM decitabine, day 7
  IL-1R-II Titer: 218.5 µg/mL
  Productivity: 5.7 pg IL-1R-II/cell/day
[1]; 34° C., 5 μM decitabine, day 10
  IL-1R-II Titer: 307 µg/mL and 307.0 µg/mL
[1]; 34° C., 10 μM decitabine, day 0
  IL-1R-II Titer: 0.0 µg/mL
[1]; [9]
  IL-1R-II Titer: 80.8 µg/mL
  Productivity: 8.3 pg IL-1R-II/cell/day
[1]; [10]
  IL-1R-II Titer: 151.5 µg/mL
  Productivity: 7.9 pg IL-1R-II/cell/day
[1]; [11]
  IL-1R-II Titer: 203.5 µg/mL
  Productivity: 7.5 pg IL-1R-II/cell/day
[1]; all concentrations of decitabine at 34° C.
  IL-1R-II titers at 34° C. compared with 31° C.: Lower IL-1R-II titers
[1]; at 7 and 10 days at all concentrations and temperatures tested
  productivity on a per cell basis: increased
[2]; 31° C.
  viability at 0 day, 1 μM: 96.1%
  viability at 3 day, 1 μM: 93.4%
  viability at 5 day, 1 μM: 94.8%
  viability at 7 day, 1 μM: 87.7%
  viability at 0 day, 5 μM: 96.1%
  viability at 3 day, 5 μM: 93.6%
  viability at 5 day, 5 μM: 84.6%
  viability at 7 day, 5 μM: 77.7%
[2]; 31° C., day 10
  viability at 10 day, 1 μM: 63.9%
  viability at 10 day, 5 μM: 58.5%
[2]; 31° C., 10 μM decitabine
  viability at 0 day, 10 μM: 96.1%
  viability at 3 day, 10 μM: 94.5%
  viability at 5 day, 10 μM: 80.8%
  viability at 7 day, 10 μM: 72.5%
[2]; [8]
  viability at 10 day, 10 μM: 50.6%
[2]; 34° C.
  viability at 0 day, 1 μM: 96.1%
  viability at 3 day, 1 μM: 93.6%
  viability at 5 day, 1 μM: 91.5%
  viability at 7 day, 1 μM: 55%
  viability at 0 day, 5 μM: 96.1%
  viability at 3 day, 5 μM: 96.1%
  viability at 5 day, 5 μM: 80.3%
  viability at 7 day, 5 μM: 62.7%
[2]; 34° C., day 10
  viability at 10 day, 1 μM: 21.4%
  viability at 10 day, 5 μM: 33.3%
[2]; 34° C., 10 μM decitabine
  viability at 0 day, 10 μM: 96.1%
  viability at 3 day, 10 μM: 93.6%
  viability at 5 day, 10 μM: 75.3%
  viability at 7 day, 10 μM: 43.9%
